# From patent publication US20210100872A1, “Pharmacological Formulation Comprising Cyclo (HIS-PRO) As Effective Ingredient For Preventing Or Treating Diabetes Mellitus” (Novmetapharma Co., Ltd., priority 2017, published 2021)
# Columns and labels:
# Format in all cases: in vivo, human
# [1] = system: patients with type 2 diabetes mellitus; test: Change in concentration of HbA1c, 12-week clinical trial; conditions: for concentration of HbA1c, Average / concentration of HbA1c, Change Value, Average: capsule once a day; for concentration of HbA1c, Change Value, Average: From Week 0 to Week 12
# Procedure: (§1) We conducted a clinical trial designed as randomized, placebo-controlled, double-blind, and two-way crossover on drug interaction in patients with type 2 diabetes mellitus. The clinical trial was conducted for 149 patients over a total of 16 weeks, in which the screening period was 2 weeks, the treatment period was 12 weeks, and the period of the evaluation of safety and follow-up was 2 weeks.
# (§2) In the screening stage, 64 subjects were selected from 149 participants, and the subjects who met the selection criteria were fasted for 2 hours before and after breakfast each day and subjected to a 2-week evaluation process of measuring and recording blood glucose levels. In the treatment stage, capsules containing placebo or CHP with different doses were randomly administered to 64 selected subjects once a day for 12 consecutive weeks.
# (§3) In the above experiment, a capsule containing CHP (cyclo-hispro) with a different dose or a placebo corresponding thereto was used, and each subject received a two-week dose (18 capsules =14 +4) at one visit and was instructed to take 1 capsule before bedtime every day. In this case, the anti-diabetic drugs and other prescribed drugs currently being used were continuously taken. Each subject was assigned at the same rate as follows and administered with a placebo or a compound with a different dose, respectively. • Administration Group A: 3 mg of CHP+23 mg of zinc—16 subjects • Administration Group B: 9 mg of CHP+23 mg of zinc—16 subjects • Administration Group C: 15 mg of CHP+23 mg of zinc—16 subjects • Administration Group D: placebo (control)—16 subjects
# The present inventors observed the change in concentration of HbA1c during the 12-week dosing period. Since the blood glucose level measured at one time point can change due to various factors, the change in glycated hemoglobin (HbA1c) was checked for the purpose of determining the pattern of long-term glycemic control, and the results are shown in Table 1 and FIG. 1.
# [2] = Change in body weight, 12-week clinical trial
# Procedure: as §1, §2
# (§4) In the above experiment, a capsule containing CHP (cyclo-hispro) with a different dose or a placebo corresponding thereto was used, and each subject received a two-week dose (18 capsules =14 +4) at one visit and was instructed to take 1 capsule before bedtime every day. In this case, the anti-diabetic drugs and other prescribed drugs currently being used were continuously taken. […]
# [3] = Body mass index (BMI), 12-week clinical trial; conditions: capsule once a day, From Week 0 to Week 12
# Procedure: as §1, §2, §3
# The present inventors confirmed the improvement of body mass index (BMI) and the improvement of leptin resistance, and the results are shown in Tables 3 and 4.
# [4] = system: patients with type 2 diabetes mellitus; test: Plasma leptin level (leptin resistance), 12-week clinical trial; conditions: Administration Group A: 3 mg of CHP+23 mg of zinc, capsule once a day; From Week 0 to Week 12
# Procedure: as §1, §2, §4
# [5] = Administration Group A: 3 mg of CHP+23 mg of zinc
# [6] = Administration Group B: 9 mg of CHP+23 mg of zinc
# [7] = Administration Group C: 15 mg of CHP+23 mg of zinc
smiles,measurement,setting,value
"O=C1NC(Cc2c[nH]cn2)C(=O)N2CCCC12 (centres unmarked) [CHP, cyclo(his-pro)]","concentration of HbA1c, Average","[1]; Administration Group A: 3 mg of CHP+23 mg of zinc, Baseline (Week 0)",8.25%
same,"concentration of HbA1c, Change Value, Average",[1]; [5],−0.21%
same,"concentration of HbA1c, Average","[1]; Administration Group B: 9 mg of CHP+23 mg of zinc, Baseline (Week 0)",8.06%
same,"concentration of HbA1c, Change Value, Average",[1]; [6],−0.17%
same,"concentration of HbA1c, Average","[1]; Administration Group C: 15 mg of CHP+23 mg of zinc, Baseline (Week 0)",8.49%
same,"concentration of HbA1c, Change Value, Average",[1]; [7],−0.43%
same,"concentration of HbA1c, Average","[1]; Administration Group C: 15 mg of CHP+23 mg of zinc, Week 12",8.08%
same,level of HbA1c over time (FIG. 1),"[1]; Administration Group C: 15 mg of CHP+23 mg of zinc, week 0 to week 12","reduced consistently until week 8, and then there was little change in the level of HbA1c between week 8 and week 12"
same,"body weight, Change Value, Average","[2]; Administration Group A: 3 mg of CHP+23 mg of zinc, capsule once a day, From Week 0 to Week 12",-0.73 kg
same,weight gain compared to the control,"[2]; all patient groups receiving CHP (3, 9, 15 mg+23 mg of zinc), 12 weeks","less than the control, or the body weight was reduced"
same,"body mass index (BMI), Change Value, Average",[3]; [5],−0.27 kg/m^2
same,"body mass index (BMI), Change Value, Average",[3]; [6],0.16 kg/m^2
same,"body mass index (BMI), Change Value, Average",[3]; [7],−0.28 kg/m^2
same,"plasma leptin level, Change Value, Average",[4],0.59
